Results from ChEMBL document CHEMBL1145401, “Design and synthesis of classical and nonclassical 6-arylthio-2,4-diamino-5-ethylpyrrolo[2,3-d]pyrimidines as antifolates” (J Med Chem, 2007).

How the values were obtained:
Dihydrofolate reductase [1] = target: Dihydrofolate reductase (Homo sapiens, UniProt P00374)
Dihydrofolate reductase [2] = target: T1, Dihydrofolate reductase (Pneumocystis carinii, UniProt P16184)
T1 sequence (P16184 whole entry): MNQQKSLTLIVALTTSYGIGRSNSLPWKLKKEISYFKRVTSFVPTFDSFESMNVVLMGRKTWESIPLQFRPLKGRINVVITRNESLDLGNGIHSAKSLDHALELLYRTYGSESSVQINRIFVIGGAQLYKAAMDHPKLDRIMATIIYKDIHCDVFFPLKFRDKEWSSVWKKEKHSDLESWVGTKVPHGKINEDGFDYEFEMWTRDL
Description: Inhibition of Pneumocystis carinii DHFR

[3] = target: T2, Bifunctional dihydrofolate reductase-thymidylate synthase (Toxoplasma gondii, UniProt Q07422)
T2 sequence (Q07422 whole entry): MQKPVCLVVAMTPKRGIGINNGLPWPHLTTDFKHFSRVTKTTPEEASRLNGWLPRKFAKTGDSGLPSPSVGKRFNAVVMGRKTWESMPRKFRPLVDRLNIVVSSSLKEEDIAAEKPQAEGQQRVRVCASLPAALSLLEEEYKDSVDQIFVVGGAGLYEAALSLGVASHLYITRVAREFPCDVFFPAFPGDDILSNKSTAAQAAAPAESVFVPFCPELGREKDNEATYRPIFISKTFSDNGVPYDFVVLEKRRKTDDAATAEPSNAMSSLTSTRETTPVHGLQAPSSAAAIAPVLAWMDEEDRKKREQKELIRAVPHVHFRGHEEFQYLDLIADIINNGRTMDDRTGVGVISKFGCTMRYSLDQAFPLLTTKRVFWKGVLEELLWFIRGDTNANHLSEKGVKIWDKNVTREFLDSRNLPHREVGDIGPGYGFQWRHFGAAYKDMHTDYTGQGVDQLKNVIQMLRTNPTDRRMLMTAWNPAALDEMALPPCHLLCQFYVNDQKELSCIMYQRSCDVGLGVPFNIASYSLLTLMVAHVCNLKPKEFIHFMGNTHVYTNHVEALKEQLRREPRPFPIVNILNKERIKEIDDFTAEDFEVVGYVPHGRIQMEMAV
Description: Inhibition of Toxoplasma gondii DHFR

Dihydrofolate reductase [4] = target: T3, Dihydrofolate reductase (Mycobacterium avium, UniProt O30463)
T3 sequence (O30463 whole entry): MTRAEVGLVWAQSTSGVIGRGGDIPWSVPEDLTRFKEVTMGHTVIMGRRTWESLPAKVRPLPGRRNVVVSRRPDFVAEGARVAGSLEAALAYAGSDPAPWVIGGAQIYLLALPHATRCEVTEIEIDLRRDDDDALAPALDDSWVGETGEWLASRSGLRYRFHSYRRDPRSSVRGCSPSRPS
Description: Inhibition of Mycobacterium avium DHFR

Dihydrofolate reductase [5] = target: T4, Dihydrofolate reductase (Rattus norvegicus, UniProt Q920D2)
T4 sequence (Q920D2 whole entry): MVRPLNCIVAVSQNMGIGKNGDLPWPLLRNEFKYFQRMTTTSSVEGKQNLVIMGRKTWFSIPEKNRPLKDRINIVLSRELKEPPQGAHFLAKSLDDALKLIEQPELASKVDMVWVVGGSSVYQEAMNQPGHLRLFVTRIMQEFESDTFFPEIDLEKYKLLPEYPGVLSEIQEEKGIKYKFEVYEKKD
Description: Inhibition of rat liver DHFR

CCRF-CEM [6] = experiment: Growth inhibition of human CCRF-CEM cells
CCRF-CEM [7] = experiment: Effect on growth of human CCRF-CEM cells at 5000 nM in presence of 10 uM deoxycytidine, 5 uM thymidine relative to control; format: functional
CCRF-CEM [8] = experiment: Effect on growth of human CCRF-CEM cells at 5000 nM in presence of 10 uM deoxycytidine, 10 uM hypoxanthine relative to control; format: functional
CCRF-CEM [9] = experiment: Effect on growth of human CCRF-CEM cells at 5000 nM in presence of 10 uM deoxycytidine, 5 uM thymidine and 10 uM hypoxanthine relative to control; format: functional
CCRF-CEM [10] = experiment: Cytotoxicity against CCRF-CEM cells; format: functional; conditions: Homo sapiens
K562 = experiment: Cytotoxicity against K562 cells; format: functional; conditions: Homo sapiens
MOLT-4 = experiment: Cytotoxicity against MOLT4 cells; format: functional; conditions: Homo sapiens
SR = experiment: Cytotoxicity against SR cells; format: functional; conditions: Homo sapiens
NCI-H460 = experiment: Cytotoxicity against NCI-H460 cells; format: functional; conditions: Homo sapiens
HCT-116 = experiment: Cytotoxicity against HCT116 cells; format: functional; conditions: Homo sapiens
HT-29 = experiment: Cytotoxicity against HT29 cells; format: functional; conditions: Homo sapiens
KM12 = experiment: Cytotoxicity against KM12 cells; format: functional; conditions: Homo sapiens
SW-620 = experiment: Cytotoxicity against SW620 cells; format: functional; conditions: Homo sapiens
SF-268 = experiment: Cytotoxicity against SF268 cells; format: functional; conditions: Homo sapiens
SF-295 = experiment: Cytotoxicity against SF295 cells; format: functional; conditions: Homo sapiens
SF-539 = experiment: Cytotoxicity against SF539 cells; format: functional; conditions: Homo sapiens
U-251 = experiment: Cytotoxicity against U251 cells; format: functional; conditions: Homo sapiens
LOX IMVI = experiment: Cytotoxicity against LOX IMVI cells; format: functional; conditions: Homo sapiens
UACC-62 = experiment: Cytotoxicity against UACC62 cells; format: functional; conditions: Homo sapiens
OVCAR-8 = experiment: Cytotoxicity against OVCAR8 cells; format: functional; conditions: Homo sapiens
ACHN = experiment: Cytotoxicity against ACHN cells; format: functional; conditions: Homo sapiens
CAKI-1 = experiment: Cytotoxicity against CAKI1 cells; format: functional; conditions: Homo sapiens
SN12C = experiment: Cytotoxicity against SN12C cells; format: functional; conditions: Homo sapiens
UO-31 = experiment: Cytotoxicity against UO31 cells; format: functional; conditions: Homo sapiens
PC-3 = experiment: Cytotoxicity against PC3 cells; format: functional; conditions: Homo sapiens
DU-145 = experiment: Cytotoxicity against DU145 cells; format: functional; conditions: Homo sapiens
MCF7 = experiment: Cytotoxicity against MCF7 cells; format: functional; conditions: Homo sapiens
MDA-MB-435 = experiment: Cytotoxicity against MDA-MB-435 cells; format: functional; conditions: Homo sapiens
CCRF-CEM [11] = experiment: Effect on growth of human CCRF-CEM cells at 5000 nM in presence of 10 uM deoxycytidine relative to control; format: functional
CCRF-CEM [12] = experiment: cells; conditions: Homo sapiens
CCRF-CEM [13] = experiment: cells; conditions: Homo sapiens; remark: listed apart in the source
CCRF-CEM [14] = experiment: cells; conditions: Homo sapiens; remark: listed apart in the source
[15] = Inhibition of Escherichia coli DHFR
[16] = Selectivity ratio of IC50 for human DHFR to IC50 for Escherichia coli DHFR
[17] = Selectivity ratio of IC50 for rat liver DHFR to IC50 for Pneumocystis carinii DHFR
[18] = Selectivity ratio of IC50 for rat liver DHFR to IC50 for Mycobacterium avium DHFR
[19] = target: Dihydrofolate reductase (Pneumocystis carinii) (UniProt P16184); conditions: 20 uM
Description: Inhibition of Pneumocystis carinii DHFR at 20 uM

CCc1c(Sc2ccc(OC)cc2)[nH]c2nc(N)nc(N)c12
IC50 (Dihydrofolate reductase [1]): 2900 nM
IC50 (Dihydrofolate reductase [2]): 53000 nM
IC50 [3]: 4620 nM
IC50 (Dihydrofolate reductase [4]): 3070 nM
IC50 (Dihydrofolate reductase [5]): 31800 nM

CCc1c(Sc2ccccc2)[nH]c2nc(N)nc(N)c12
IC50 (Dihydrofolate reductase [1]): 18000 nM
IC50 [3]: 180 nM

CCc1c(Sc2ccc(C(=O)N[C@@H](CCC(=O)O)C(=O)O)cc2)[nH]c2nc(N)nc(N)c12
EC50 (CCRF-CEM [6]): 68 nM
Activity (CCRF-CEM [7]): 15%
Activity (CCRF-CEM [8]): 12%
Activity (CCRF-CEM [9]): 74%
GI50 (CCRF-CEM [10]): 17 nM
GI50 (K562): 12 nM
GI50 (MOLT-4): 480 nM
GI50 (SR): < 10 nM
GI50 (NCI-H460): 180 nM
GI50 (HCT-116): 23 nM
GI50 (HT-29): 98 nM
GI50 (KM12): 56 nM
GI50 (SW-620): 26 nM
GI50 (SF-268): 430 nM
GI50 (SF-295): 660 nM
GI50 (SF-539): 240 nM
GI50 (U-251): 530 nM
GI50 (LOX IMVI): 44 nM
GI50 (UACC-62): 880 nM
GI50 (OVCAR-8): 740 nM
GI50 (ACHN): 440 nM
GI50 (CAKI-1): 170 nM
GI50 (SN12C): 600 nM
GI50 (UO-31): 300 nM
GI50 (PC-3): 400 nM
GI50 (DU-145): 370 nM
GI50 (MCF7): 170 nM
GI50 (MDA-MB-435): 660 nM
Activity (CCRF-CEM [11]): 12%
IC50 (Dihydrofolate reductase [1]): 66 nM
EC50 (CCRF-CEM [12]): 5700 nM
EC50 (CCRF-CEM [13]): 6700 nM
EC50 (CCRF-CEM [14]): 200 nM

COc1ccc(Sc2[nH]c3nc(N)nc(N)c3c2C)cc1
IC50 (Dihydrofolate reductase [4]): 690 nM

CCc1c(Sc2ccc([N+](=O)[O-])cc2)[nH]c2nc(N)nc(N)c12
IC50 [15]: 90 nM
Ratio IC50 [16]: 64.4
Ratio IC50 [17]: 0.4
Ratio IC50 [18]: 8.6
IC50 (Dihydrofolate reductase [1]): 5800 nM
IC50 (Dihydrofolate reductase [2]): 8680 nM
IC50 [3]: 320 nM
IC50 (Dihydrofolate reductase [4]): 370 nM
IC50 (Dihydrofolate reductase [5]): 3200 nM

CCc1c(Sc2ccc(Br)cc2)[nH]c2nc(N)nc(N)c12
IC50 [15]: 140 nM
Ratio IC50 [16]: 19.3
Ratio IC50 [17]: 0.4
Ratio IC50 [18]: 1.4
IC50 (Dihydrofolate reductase [1]): 2700 nM
IC50 (Dihydrofolate reductase [2]): 26600 nM
IC50 [3]: 11600 nM
IC50 (Dihydrofolate reductase [4]): 7400 nM
IC50 (Dihydrofolate reductase [5]): 10100 nM

CCc1c(Sc2ccc3ccccc3c2)[nH]c2nc(N)nc(N)c12
IC50 (Dihydrofolate reductase [1]): 6000 nM
IC50 (Dihydrofolate reductase [2]): 13900 nM
IC50 [3]: 5120 nM
IC50 (Dihydrofolate reductase [4]): 6520 nM
IC50 (Dihydrofolate reductase [5]): 8620 nM

Cc1c(Sc2ccc(Cl)c(Cl)c2)[nH]c2nc(N)nc(N)c12
Ratio IC50 [17]: 9.1
Ratio IC50 [18]: 5.8
IC50 [3]: 20000 nM
IC50 (Dihydrofolate reductase [4]): 19000 nM
IC50 (Dihydrofolate reductase [5]): 110000 nM
inhibition [19]: 14%

Cc1c(Sc2ccc3ccccc3c2)[nH]c2nc(N)nc(N)c12
Ratio IC50 [17]: 0.1
Ratio IC50 [18]: 6.5
IC50 [3]: 160 nM
IC50 (Dihydrofolate reductase [4]): 700 nM

CCc1c(Sc2cccc3ccccc23)[nH]c2nc(N)nc(N)c12
IC50 (Dihydrofolate reductase [1]): 2900 nM
IC50 (Dihydrofolate reductase [2]): 18400 nM
IC50 [3]: 3150 nM
IC50 (Dihydrofolate reductase [4]): 19800 nM
IC50 (Dihydrofolate reductase [5]): 40100 nM
